The Kd is the concentration at which binding is half-saturated. A low value points to tighter binding. Broadly, the IC50 is the concentration that gives 50% inhibition.

The values below come from EP4603105A1, “PHARMACEUTICAL COMPOSITION CONTAINING CYCLIC COMPOUND HAVING SELECTIVE KRAS INHIBITORY EFFECT AGAINST HRAS AND NRAS” (CHUGAI SEIYAKU KABUSHIKI KAISHA, priority 2022, dated 2024).

The target in test [1] is GDP-bound KRAS wild-type protein (Homo sapiens, UniProt P01116). In words: Binding to KRAS by surface plasmon resonance (SPR), dissociation constant KD. Conditions: Single Cycle Kinetics. In short, it runs like this: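 Measured at 30°C: SPR with GDP-loaded, E. coli-expressed biotin-Avi RAS captured (~100–300 RU), ascending 75 s compound injections, HBS pH 7.4 with GDP, MgCl2, 4% DMSO. KD from 1:1 fit.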
Chain of GDP-bound KRAS wild-type protein (P01116 1-188 isoform P01116-2): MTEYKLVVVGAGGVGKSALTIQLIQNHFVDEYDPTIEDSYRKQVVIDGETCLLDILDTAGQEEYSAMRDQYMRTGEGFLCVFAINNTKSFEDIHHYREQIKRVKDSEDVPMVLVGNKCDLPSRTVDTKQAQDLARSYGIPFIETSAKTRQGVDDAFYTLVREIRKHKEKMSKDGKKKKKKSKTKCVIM
For orientation: In SPR one partner is held on a chip, and binding of the other changes the refractive index at the surface.

Test [2] concerns the target GDP-bound NRAS wild-type protein (Homo sapiens, UniProt P01111). Kind of test: Binding to NRAS by surface plasmon resonance (SPR), KD and KD ratio to KRAS. Conditions: ratio of KD for GDP-bound NRAS wild-type protein to KD for KRAS. In short, it runs like this: (§1)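 Biotinylated GDP-bound RAS was captured at about 100–300 RU. Running buffer: HBS pH 7.4, 10 mM MgCl2, 10 µM GDP, 1 mM DTT, 0.01% Tween 20, 4% DMSO.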

The target in a further test is HRAS wild-type protein (Homo sapiens, UniProt P01112). Kind of test: Binding to HRAS by surface plasmon resonance (SPR), KD and KD ratio to KRAS. Conditions: ratio of KD for HRAS wild-type protein to KD for KRAS. In short, it runs like this: as §1
Chain of HRAS wild-type protein (P01112 whole entry): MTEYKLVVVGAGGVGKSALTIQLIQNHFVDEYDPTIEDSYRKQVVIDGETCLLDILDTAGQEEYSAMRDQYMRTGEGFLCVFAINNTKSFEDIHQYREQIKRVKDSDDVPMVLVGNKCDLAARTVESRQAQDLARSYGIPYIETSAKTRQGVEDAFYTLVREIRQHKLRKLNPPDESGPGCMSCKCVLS
Test [3] has as its system human lung cancer strain NCI-H441. In words: NCI-H441 cell proliferation inhibitory activity (CellTiter-Glo, 4 days). It counts as cell-based. Conditions: NCI-H441 cells, 4 days, read-out: NCl-H441 IC50. In short, it runs like this: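 Step one: dispense the test compound in serial DMSO dilutions. Step three: add the reagent and measure […].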
(In general: ATP-based viability assays read luminescence as a measure of living cells.)

Chain of GDP-bound NRAS wild-type protein (P01111 whole entry): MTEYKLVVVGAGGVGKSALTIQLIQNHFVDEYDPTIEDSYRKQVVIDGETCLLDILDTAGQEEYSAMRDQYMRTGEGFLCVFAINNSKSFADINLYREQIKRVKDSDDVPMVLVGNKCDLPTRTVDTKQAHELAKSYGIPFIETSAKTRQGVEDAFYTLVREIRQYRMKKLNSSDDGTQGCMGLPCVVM

In test [1], `CCC[C@H]1C(=O)N[C@@H]([C@@H](C)CC)C(=O)N(C)CC(=O)N(C)[C@H]2C/C=C\CCN(C2=O)[C@@H](Cc2ccc(C)cc2)C(=O)N(C)CC(=O)N[C@@H](CCc2ccc(C(F)(F)F)c(Cl)c2)C(=O)N2CC3(CC3)C[C@H]2C(=O)N(C)C2(CCC2)C(=O)N(C)[C@@H](C2CCCC2)C(=O)N(C)[C@H](C(=O)N(C)C)CC(=O)N1C` [PP3298] came in with a Kd of 0.34 nM. In addition, the “NRAS /KRAS” value in test [2] was “B (a compound having 3 or more and less than 10 is denoted as B)”. The “HRAS /KRAS” value on HRAS wild-type protein was “B (a compound having 3 or more and less than 10 is denoted as B)”. The IC50 in test [3] stood at 3.4 nM.
In the case of `CCC[C@H]1C(=O)N[C@@H]([C@@H](C)CC)C(=O)N(C)CC(=O)N(C)[C@H]2C/C=C\CCN(C2=O)[C@@H](Cc2ccc(C(F)(F)F)cc2)C(=O)N(C)CC(=O)N[C@@H](CCc2ccc(C(F)(F)F)c(Cl)c2)C(=O)N2CC3(CC3)C[C@H]2C(=O)N(C)C2(CCC2)C(=O)N(C)[C@@H]([C@@H](C)CC)C(=O)N(C)[C@H](C(=O)N(C)C)CC(=O)N1C` [PP3299], the Kd in test [1] came to 0.11 nM. Also, the “NRAS /KRAS” value in test [2] is “A (a compound having 10 or more and less than 20 is denoted as A)”. Moreover, the “HRAS /KRAS” value on HRAS wild-type protein was “A (a compound having 10 or more and less than 20 is denoted as A)”. For the same compound, the IC50 in test [3] was 8.1 nM.
`CCC[C@H]1C(=O)N[C@@H]([C@@H](C)CC)C(=O)N(C)CC(=O)N(C)[C@H]2C/C=C\CCN(C2=O)[C@@H](Cc2ccc(C)cc2)C(=O)N(C)CC(=O)N[C@@H](CCc2ccc(C(F)(F)F)c(Cl)c2)C(=O)N2CC3(CC3)C[C@H]2C(=O)N(C)C2(CCC2)C(=O)N(C)[C@@H](C(CC)CC)C(=O)N(C)[C@H](C(=O)N(C)C)CC(=O)N1C` [PP3300] returned a Kd in test [1] of 0.13 nM. Further, the “NRAS /KRAS” value in test [2] is “A (a compound having 10 or more and less than 20 is denoted as A)”. Further, the “HRAS /KRAS” value on HRAS wild-type protein was “B (a compound having 3 or more and less than 10 is denoted as B)”. Also, in test [3], the IC50 came out at 11.2 nM.
In test [1], `CCC[C@H]1C(=O)N[C@@H]([C@@H](C)CC)C(=O)N(C)CC(=O)N(C)[C@H]2C/C=C\CCN(C2=O)[C@@H](Cc2ccc(C)cc2)C(=O)N(C)CC(=O)N[C@@H](CCc2ccc(C(F)(F)F)c(Cl)c2)C(=O)N2CC3(CC3)C[C@H]2C(=O)N(C)C2(CCC2)C(=O)N(C)[C@@H]([C@@H](C)CC)C(=O)N(C)[C@H](C(=O)N(C)C)CC(=O)N1C` [PP3302] had a Kd of 0.081 nM. For the same compound, in test [2], the “NRAS /KRAS” value is “A (a compound having 10 or more and less than 20 is denoted as A)”. For the same compound, the “HRAS /KRAS” value on HRAS wild-type protein was “A (a compound having 10 or more and less than 20 is denoted as A)”. Also, the IC50 in test [3] turned out to be 9 nM.
In test [1], `CCC[C@H]1C(=O)N[C@@H](C2CCCC2)C(=O)N(C)CC(=O)N(C)[C@H]2C/C=C\CCN(C2=O)[C@@H](Cc2ccc(C(F)(F)F)cc2)C(=O)N(C)CC(=O)N[C@@H](CCc2cc(F)c(C(F)(F)F)c(F)c2)C(=O)N2CC3(CC3)C[C@H]2C(=O)N(C)C2(CCC2)C(=O)N(C)[C@@H](C(CC)CC)C(=O)N(C)[C@H](C(=O)N(C)C)CC(=O)N1C` [PP3305] returned a Kd of 0.68 nM. In addition, the “NRAS /KRAS” value in test [2] is “AA (a compound having 20 or more is denoted as AA)”. Further, the “HRAS /KRAS” value at HRAS wild-type protein is “A (a compound having 10 or more and less than 20 is denoted as A)”. Besides, the IC50 in test [3] was determined as 20.3 nM.
The compound `CCC[C@H]1C(=O)N[C@@H](C2CCCC2)C(=O)N(C)CC(=O)N(C)[C@H]2C/C=C\CCN(C2=O)[C@@H](Cc2ccc(C)cc2)C(=O)N(C)CC(=O)N[C@@H](CCc2cc(F)c(C(F)(F)F)c(F)c2)C(=O)N2CC3(CC3)C[C@H]2C(=O)N(C)C2(CCC2)C(=O)N(C)[C@@H](C2CCCC2)C(=O)N(C)[C@H](C(=O)N(C)C)CC(=O)N1C` [PP3306] displayed a Kd in test [1] of 0.052 nM. In addition, the “NRAS /KRAS” value in test [2] is “A (a compound having 10 or more and less than 20 is denoted as A)”. Besides, the “HRAS /KRAS” value at HRAS wild-type protein was “B (a compound having 3 or more and less than 10 is denoted as B)”. In addition, the IC50 in test [3] is 9.3 nM.
The compound `CCC[C@H]1C(=O)N[C@@H](C2CCCC2)C(=O)N(C)CC(=O)N(C)[C@H]2C/C=C\CCN(C2=O)[C@@H](Cc2ccc(C(F)(F)F)cc2)C(=O)N(C)CC(=O)N[C@@H](CCc2cc(F)c(C(F)(F)F)c(F)c2)C(=O)N2CC3(CC3)C[C@H]2C(=O)N(C)C2(CCC2)C(=O)N(C)[C@@H]([C@@H](C)CC)C(=O)N(C)[C@H](C(=O)N(C)C)CC(=O)N1C` [PP3307] showed a Kd in test [1] of 2.4 nM. In addition, in test [2], the “NRAS /KRAS” value was “AA (a compound having 20 or more is denoted as AA)”. In addition, at HRAS wild-type protein, the “HRAS /KRAS” value is “A (a compound having 10 or more and less than 20 is denoted as A)”. In addition, the IC50 in test [3] is 25.4 nM.
`CCC[C@H]1C(=O)N[C@@H](C2CCCC2)C(=O)N(C)CC(=O)N(C)[C@H]2C/C=C\CCN(C2=O)[C@@H](Cc2ccc(C)cc2)C(=O)N(C)CC(=O)N[C@@H](CCc2cc(F)c(C(F)(F)F)c(F)c2)C(=O)N2CC3(CC3)C[C@H]2C(=O)N(C)C2(CCC2)C(=O)N(C)[C@@H](C(CC)CC)C(=O)N(C)[C@H](C(=O)N(C)C)CC(=O)N1C` [PP3308] returned a Kd in test [1] of 0.18 nM. Also, in test [2], the “NRAS /KRAS” value is “A (a compound having 10 or more and less than 20 is denoted as A)”. Moreover, the “HRAS /KRAS” value at HRAS wild-type protein was “B (a compound having 3 or more and less than 10 is denoted as B)”. Besides, in test [3], the IC50 is 17.2 nM.
In test [1], `CCC[C@H]1C(=O)N[C@@H](C2CCCC2)C(=O)N(C)CC(=O)N(C)[C@H]2C/C=C\CCN(C2=O)[C@@H](Cc2ccc(C(F)(F)F)cc2)C(=O)N(C)CC(=O)N[C@@H](CCc2ccc(C(F)(F)F)c(OC)c2)C(=O)N2CC3(CC3)C[C@H]2C(=O)N(C)C2(CCC2)C(=O)N(C)[C@@H]([C@@H](C)CC)C(=O)N(C)[C@H](C(=O)N(C)C)CC(=O)N1C` [PP3315] yielded a dissociation constant (Kd) of 0.92 nM. Further, the “NRAS /KRAS” value in test [2] was “A (a compound having 10 or more and less than 20 is denoted as A)”. Moreover, the “HRAS /KRAS” value on HRAS wild-type protein was “A (a compound having 10 or more and less than 20 is denoted as A)”. The IC50 in test [3] stood at 7.2 nM.
`CCC[C@H]1C(=O)N[C@@H](C2CCCC2)C(=O)N(C)CC(=O)N(C)[C@H]2C/C=C\CCN(C2=O)[C@@H](Cc2ccc(C)cc2)C(=O)N(C)CC(=O)N[C@@H](CCc2ccc(C(F)(F)F)c(OC)c2)C(=O)N2CC3(CC3)C[C@H]2C(=O)N(C)C2(CCC2)C(=O)N(C)[C@@H](C(CC)CC)C(=O)N(C)[C@H](C(=O)N(C)C)CC(=O)N1C` [PP3316] gave a Kd in test [1] of 0.17 nM. For the same compound, the “NRAS /KRAS” value in test [2] was “A (a compound having 10 or more and less than 20 is denoted as A)”. Besides, the “HRAS /KRAS” value on HRAS wild-type protein was “B (a compound having 3 or more and less than 10 is denoted as B)”. Besides, the IC50 in test [3] was found to be 11.2 nM.
Take `CCC[C@H]1C(=O)N[C@@H](C2CCCC2)C(=O)N(C)CC(=O)N(C)[C@H]2C/C=C\CCN(C2=O)[C@@H](Cc2ccc(C(F)(F)F)cc2)C(=O)N(C)CC(=O)N[C@@H](CCc2ccc(C(F)(F)F)c(OC)c2)C(=O)N2CC3(CC3)C[C@H]2C(=O)N(C)C2(CCC2)C(=O)N(C)[C@@H](CC(C)(C)C)C(=O)N(C)[C@H](C(=O)N(C)C)CC(=O)N1C` [PP3317]: the Kd in test [1] was determined as 0.069 nM. For the same compound, the “NRAS /KRAS” value in test [2] is “B (a compound having 3 or more and less than 10 is denoted as B)”. The “HRAS /KRAS” value on HRAS wild-type protein is “B (a compound having 3 or more and less than 10 is denoted as B)”. In test [3], the IC50 is 2.5 nM.
